Laboratory results reported in patent US20130267474A1, “NOVEL PHYTOCHEMICALS FROM EXTRACTS OF MAPLE SYRUPS AND MAPLE TREES AND USES THEREOF” (UNIVERSITY OF RHODE ISLAND, priority 2010, published 2013).
Like-named read-outs stand apart in the source and are kept apart here. Blank lines part the entries; values can stand above or below the compound they belong to.

Legend:
[1] = DPPH radical scavenging (antioxidant) assay; type: biochemical; conditions: Table 10; mean ± standard deviation; 30 min, 515 nm; read-out: IC50 (μM), DPPH radical scavenging
Method: The DPPH radical scavenging activity of ascorbic acid (vitamin C) and the synthetic commercial antioxidant, butylated hydroxytoluene (BHT) are also assayed as positive controls (see Table 10). […] Absorbance is determined after 30 min at 515 nm, and the scavenging capacity (SC) is calculated as SC %=[(A0−A1/A0)]×100, where A0 is the absorbance of the reagent blank and A1 is the absorbance of the test samples. The control contained all reagents except the compounds, and all tests are performed in triplicate.
Absorbance is determined after 30 min at 515 nm, and the scavenging capacity (SC) is calculated as SC %=[(A0−A1/A0)]×100 where A0 is the absorbance of the reagent blank, and A1 is the absorbance with test samples. The control contained all reagents except the compounds and all tests are performed in triplicate.

[2] = tested on: HT-29 (human colon adenocarcinoma); test: MTS cytotoxicity / antiproliferative assay; type: cell-based
Method: (§1) Cell lines included three human colon cancer cells: HT-29 (human colon adenocarcinoma), HCT116 (human colon carcinoma) and Caco-2 (human epithelial colorectal adenocarcinoma). In addition, normal human colon cells are included: CCD-^18Co (human colon fibroblasts). All cell lines are obtained from the American Type Culture Collection (ATCC, Rockville, Md., USA) and maintained at the University of Rhode Island.
(§2) The assay is carried out to measure the IC50 values for samples. […] Test samples and a positive control, etoposide 4 mg/mL (Sigma), are solubilized in DMSO by sonication. […] Control wells are also included on all plates. […] Each point on the curve is […]. Data (see tables 6 to 9) are expressed as mean±SE for three replications on each cell line.

[3] = tested on: HCT-116 (human colon carcinoma); test: MTS cytotoxicity / antiproliferative assay; type: cell-based
Method: as §1, §2

[4] = tested on: Caco-2 (human epithelial colorectal adenocarcinoma); test: MTS cytotoxicity / antiproliferative assay; type: cell-based
Method: as §1, §2

[5] = Homo sapiens, HT-29, 48 h, read-out: Antiproliferative activity HT-29 48 h (IC50), 48 h, pure isolated compounds
[6] = Homo sapiens, HT-29, 72 h, 72 h, pure isolated compounds, read-out: Antiproliferative activity HT-29 72 h (IC50)
[7] = Homo sapiens, HCT-116, 48 h, read-out: Antiproliferative activity HCT-116 48 h (IC50), 48 h, pure isolated compounds
[8] = Homo sapiens, HCT-116, 72 h, 72 h, pure isolated compounds, read-out: Antiproliferative activity HCT-116 72 h (IC50)
[9] = Homo sapiens, HCT-116, 72 h, 72 h, range given for the group, read-out: IC50 against HCT-116 cells at 72 h (activity ranking)

- IC50 [1]: 814 ± 37.7 µM
Compound: COc1cc(C(O)C(CO)Oc2ccc(C(O)C(O)CO)cc2OC)ccc1O (stereo not drawn) [compound 28]

- IC50 [1]: 139 ± 13.3 µM
Compound: COc1cc([C@@H](O)[C@@H](CO)Oc2ccc(CCCO)cc2OC)ccc1O [compound 29, threo-guaiacylglycerol-β-O-4′-dihydroconiferyl alcohol]

- IC50 [1]: 904 µM
Compound: COc1cc(C(O)C(CO)Oc2c(OC)cc(CCCO)cc2OC)ccc1O (stereo not drawn) [compound 30, erythro-1-(4-hydroxy-3-methoxyphenyl)-2-[4-(3-hydroxypropyl)-2,6-dimethoxyphenoxy]-1,3-propanediol]

Compound: Oc1ccc(O)c(O)c1 [compound 52, 4-hydroxycatechol]
- IC50 [2, 5]: 110 ± 2.3 µM
- IC50 [2, 6]: 100 ± 1.5 µM
- IC50 [3, 7]: 95 ± 3.4 µM
- IC50 [3, 8]: 57.7 ± 3.4 µM
- IC50 [3, 9]: 42 to 67 µM
- IC50 ([4]; Homo sapiens, Caco-2, 48 h, read-out: Antiproliferative activity Caco-2 48 h (IC50), 48 h, pure isolated compounds): 89.2 ± 1.9 µM
- IC50 ([4]; Homo sapiens, Caco-2, 72 h, 72 h, pure isolated compounds, read-out: Antiproliferative activity Caco-2 72 h (IC50)): 78.6 ± 1.2 µM

Compound: COc1cc(CCCO)ccc1OC(CO)C(O)c1ccc(OC2OC(C)C(O)C(O)C2O)c(OC)c1 (stereo not drawn) [compound 55]
- IC50 [2, 5]: 128.2 ± 1.1 µM
- IC50 [2, 6]: 121 ± 1.3 µM
- IC50 [3, 7]: 119 ± 1.4 µM
- IC50 [3, 8]: 104 ± 1.7 µM
- IC50 [3, 9]: 94 to 110 µM

Compound: O=C(O[C@H]1CO[C@H](CO)[C@@H](O)[C@@H]1O)c1cc(O)c(O)c(O)c1 [compound 72, ginnalin-C]
- HT-29 48 h IC50 ([2]; 48 h, ginnalins): 33.8 ± 2.0 µg/mL
- HT-29 72 h IC50 ([2]; 72 h, ginnalins): 30.1 ± 1.3 µg/mL
- IC50 ([2]; Table 6 maple compounds, 72 h, unit inferred, read-out: HT-29 72 h(IC50)): 95.4 µM
- IC50 ([2]; read-out: HT-29 48 h(IC50), Table 6 maple compounds, 48 h, unit inferred): 107 µM
- HCT-116 48 h IC50 ([3]; 48 h, ginnalins): 27.0 ± 1.9 µg/mL
- HCT-116 72 h IC50 ([3]; 72 h, ginnalins): 22.3 ± 2.4 µg/mL
- IC50 ([3]; Table 6 maple compounds, 72 h, unit inferred, read-out: HCT-116 72 h(IC50)): 70.7 µM
- IC50 ([3]; read-out: HCT-116 48 h(IC50), Table 6 maple compounds, 48 h, unit inferred): 86.5 µM
- Caco-2 48 h IC50 ([4]; 48 h, ginnalins): 35.0 ± 1.4 µg/mL
- Caco-2 72 h IC50 ([4]; 72 h, ginnalins): 29.8 ± 1.2 µg/mL
- IC50 ([4]; Table 6 maple compounds, 72 h, unit inferred, read-out: Caco-2 72 h(IC50)): 94.4 µM
- IC50 ([4]; read-out: Caco-2 48 h(IC50), Table 6 maple compounds, 48 h, unit inferred): 111 µM

Compound: O=C(O)/C=C/c1ccc(O)cc1 [p-Coumaric Acid]
- IC50 ([3]; Homo sapiens, HCT-116, 72 h, Table 6 maple compounds, 72 h, unit inferred, read-out: HCT-116 72 h(IC50)): 124 µM

Compound: catechaldehyde [compound 14]
- IC50 [1]: 694 ± 110 µM

Compound: catechol [compound 23]
- IC50 [1]: 10100 ± 1670 µM

- IC50 [1]: 925 ± 179 µM
Compound: dehydroconiferyl alcohol [compound 3]

Compound: gallic acid [compound 17]
- IC50 [1]: 703 ± 141 µM

- IC50 [1]: 946 ± 58.5 µM
Compound: lyoniresinol [compound 1]

Compound: syringaldehyde [compound 16]
- IC50 [1]: 2880 ± 44 µM

- IC50 [1]: 258 ± 33.8 µM
Compound: syringic acid [compound 19]

- IC50 [1]: 112 ± 5.1 µM
Compound: trimethyl gallic acid methyl ester [compound 18]
